PMC12862769 (ACS infectious diseases, 2025)
Like-named read-outs stand apart in the source and are kept apart here.

Columns and labels:
E. faecium NR-32053 = test: MIC assay; assay type: cell-based
E. faecium NR-31933 = test: MIC assay; assay type: cell-based
E. faecium NR-31914 = details: cited from earlier work
E. faecium NR-31916 = details: cited from earlier work
[1] = system: E. casseliflavus ATCC 700327; test: MIC assay; assay type: cell-based
[2] = system: Staphylococcus aureus USA300; test: MIC assay; assay type: cell-based; details: no CAs, expresses MpsAB homologs
E. faecium NR-32094 = test: MIC assay; assay type: cell-based
E. faecium HM-970 = test: MIC assay; assay type: cell-based
E. faecium NR-31909 [3] = test: E. faecium septicemic peritonitis mouse model; assay type: in vivo, BALB/c mice
E. faecium HM-965 = test: MIC assay; assay type: cell-based
E. faecium HM-952 = test: MIC assay; assay type: cell-based
[4] = system: α-Carbonic anhydrase (Q3XYE8); details: lysates pre-incubated with 100 μM free inhibitor, compared to Biotin-AZM; α-CA
[5] = system: Bacillus subtilis ATCC11774; test: MIC assay; assay type: cell-based; details: encodes both MpsAB and CAs
E. faecalis HM-201 = test: MIC assay; assay type: cell-based
E. durans ATCC 11576 = test: MIC assay; assay type: cell-based
E. faecium HM-968 = details: cited from earlier work
E. faecium NR-31954 = test: MIC assay; assay type: cell-based
[6] = system: all tested Enterococcus strains; test: MIC assay, all tested Enterococcus strains; assay type: cell-based
E. faecium ATCC 700221 = test: MIC assay; assay type: cell-based
E. faecium NR-31909 [7] = test: MIC assay; assay type: cell-based
E. faecalis HM-334 = details: cited from earlier work
[8] = system: Staphylococcus epidermidis NRS101; test: MIC assay; assay type: cell-based; details: no CAs, expresses MpsAB homologs
E. faecalis NR-31971 = details: cited from earlier work
E. faecalis HM-335 = details: cited from earlier work
E. faecium NR-31937 = test: MIC assay; assay type: cell-based
E. raffinosus ATCC 49464 = test: MIC assay; assay type: cell-based
E. gallinarum ATCC 49373 = test: MIC assay; assay type: cell-based
E. faecium NR-31912 = test: MIC assay; assay type: cell-based
[9] = system: Listeria Monocytogenes ATCC 19111; test: MIC assay; assay type: cell-based; details: encodes only α-CA, no MpsAB homologs
[10] = system: E. faecalis and E. faecium strains; test: MIC assay, panel of 25 E. faecalis and E. faecium strains; assay type: cell-based; details: ambient air
E. faecium NR-28978 = details: cited from earlier work
E. faecium NR-32052 = details: cited from earlier work
E. faecalis NR-31970 = test: MIC assay; assay type: cell-based
E. avium ATCC 14025 = test: MIC assay; assay type: cell-based
E. faecium NR-31903 = details: cited from earlier work
E. faecium NR-32065 = details: cited from earlier work
[11] = system: E. saccharolyticus ATCC 43076; test: MIC assay; assay type: cell-based
E. faecium α-CA = test: in vitro inhibition of bacterial α-CA; assay type: biochemical
E. faecalis NR-31972 = details: cited from earlier work
E. hirae ATCC 10541 = test: MIC assay; assay type: cell-based
E. faecalis HM-934 = test: MIC assay; assay type: cell-based

CC(=O)Nc1nnc(S(N)(=O)=O)s1 [AZM, acetazolamide]
72.0 µM: MIC ([1]; ambient air at 37° C) | MIC (E. avium ATCC 14025; ambient air at 37° C)
72 µM: MIC ([9]; ambient air at 37° C)
> 99%: reduction of VRE bioburden (E. faecium NR-31909 [3]; kidney, liver and spleen, three-day treatment)
4.50 µM: MIC (E. faecium NR-32053; ambient air at 37° C) | MIC (E. faecium HM-965; ambient air at 37° C) | MIC (E. faecium NR-32065; ambient air at 37° C) | MIC ([11]; ambient air at 37° C)
> 5 fold: potency against α-CA over γ-CA based on Ki (E. faecium α-CA)
9.01 µM: MIC (E. faecium NR-31933; ambient air at 37° C) | MIC (E. faecium NR-31914; ambient air at 37° C) | MIC (E. faecium NR-31916; ambient air at 37° C) | MIC (E. faecium NR-32094; ambient air at 37° C) | MIC (E. faecium HM-970; ambient air at 37° C) | MIC (E. faecium HM-952; ambient air at 37° C) | MIC (E. faecium HM-968; ambient air at 37° C) | All Enterococci spp. MIC50 ([6]; inhibited 50% of all tested Enterococcus strains, ambient air) | MIC (E. faecium ATCC 700221; ambient air at 37° C) | MIC (E. faecium NR-31909 [7]; ambient air at 37° C) | MIC (E. faecalis HM-334; ambient air at 37° C) | MIC (E. faecalis NR-31971; ambient air at 37° C) | MIC (E. faecalis HM-335; ambient air at 37° C) | MIC (E. faecium NR-31937; ambient air at 37° C) | MIC (E. faecium NR-31912; ambient air at 37° C) | Ef MIC50 ([10]; inhibited 50% of the tested E. faecalis and E. faecium strains) | MIC (E. faecium NR-28978; ambient air at 37° C) | MIC (E. faecium NR-32052; ambient air at 37° C) | MIC (E. faecium NR-31903; ambient air at 37° C) | MIC (E. faecalis NR-31972; ambient air at 37° C) | MIC (E. faecalis HM-934; ambient air at 37° C)
18 µM: Ef MIC90 ([10]; inhibited 90% of the tested E. faecalis and E. faecium strains)
66.7%: survival (mice rescued) (E. faecium NR-31909 [3]; 20 mg/kg PO once-daily for three days, n = 6/group)
18.0 µM: MIC (E. faecalis HM-201; ambient air at 37° C) | MIC (E. faecalis NR-31970; ambient air at 37° C)
>500 µM: MIC ([2]; 5% CO2 atmosphere at 37° C) | MIC ([2]; ambient air at 37° C) | MIC ([5]; 5% CO2 atmosphere at 37° C) | MIC ([5]; ambient air at 37° C) | MIC ([8]; 5% CO2 atmosphere at 37° C) | MIC ([8]; ambient air at 37° C) | MIC ([9]; 5% CO2 atmosphere at 37° C)
at least 2 Log10 CFU/mL: reduction of VRE bioburden compared to vehicle (E. faecium NR-31909 [3]; kidney, liver and spleen, each tissue, 20 mg/kg PO QD three days)
2.25 µM: MIC (E. durans ATCC 11576; ambient air at 37° C)
> 288 µM: MIC (E. faecium NR-32053; 5% CO2 atmosphere at 37° C) | MIC (E. faecium NR-31933; 5% CO2 atmosphere at 37° C) | MIC (E. faecium NR-31914; 5% CO2 atmosphere at 37° C) | MIC (E. faecium NR-31916; 5% CO2 atmosphere at 37° C) | MIC ([1]; 5% CO2 atmosphere at 37° C) | MIC (E. faecium NR-32094; 5% CO2 atmosphere at 37° C) | MIC (E. faecium HM-970; 5% CO2 atmosphere at 37° C) | MIC (E. faecium HM-965; 5% CO2 atmosphere at 37° C) | MIC (E. faecium HM-952; 5% CO2 atmosphere at 37° C) | MIC (E. faecalis HM-201; 5% CO2 atmosphere at 37° C) | MIC (E. durans ATCC 11576; 5% CO2 atmosphere at 37° C) | MIC (E. faecium HM-968; 5% CO2 atmosphere at 37° C) | MIC (E. faecium NR-31954; 5% CO2 atmosphere at 37° C) | MICs in the presence of CO2 ([6]; all Enterococcus species, 5% CO2) | MIC (E. faecium ATCC 700221; 5% CO2 atmosphere at 37° C) | MIC (E. faecium NR-31909 [7]; 5% CO2 atmosphere at 37° C) | MIC (E. faecalis HM-334; 5% CO2 atmosphere at 37° C) | MIC (E. faecalis NR-31971; 5% CO2 atmosphere at 37° C) | MIC (E. faecalis HM-335; 5% CO2 atmosphere at 37° C) | MIC (E. faecium NR-31937; 5% CO2 atmosphere at 37° C) | MIC (E. raffinosus ATCC 49464; 5% CO2 atmosphere at 37° C) | MIC (E. gallinarum ATCC 49373; 5% CO2 atmosphere at 37° C) | MIC (E. faecium NR-31912; 5% CO2 atmosphere at 37° C) | MIC (E. faecium NR-28978; 5% CO2 atmosphere at 37° C) | MIC (E. faecium NR-32052; 5% CO2 atmosphere at 37° C) | MIC (E. faecalis NR-31970; 5% CO2 atmosphere at 37° C) | MIC (E. avium ATCC 14025; 5% CO2 atmosphere at 37° C) | MIC (E. faecium NR-31903; 5% CO2 atmosphere at 37° C) | MIC (E. faecium NR-32065; 5% CO2 atmosphere at 37° C) | MIC ([11]; 5% CO2 atmosphere at 37° C) | MIC (E. faecalis NR-31972; 5% CO2 atmosphere at 37° C) | MIC (E. hirae ATCC 10541; 5% CO2 atmosphere at 37° C) | MIC (E. faecalis HM-934; 5% CO2 atmosphere at 37° C)
36.0 µM: MIC (E. faecium NR-31954; ambient air at 37° C) | All Enterococci spp. MIC90 ([6]; inhibited 90% of all tested Enterococcus strains, ambient air) | MIC (E. raffinosus ATCC 49464; ambient air at 37° C) | MIC (E. gallinarum ATCC 49373; ambient air at 37° C) | MIC (E. hirae ATCC 10541; ambient air at 37° C)
−7.88: Log2 (FC) [4]
